According to US20240148625A1, “Estolide Esters For The Cosmetic Treatment Of Skin” (CLARIANT INTERNATIONAL LTD, priority 2020, published 2024):

Legend:
[1] = Pigment wetting: viscosity difference rate of pigment dispersion; type: physicochemical; conditions: 65% emollient with 35% red iron oxide; rheometer 20.0° C., 10.0 1/s; lower = better pigment wetting
Description: The viscosity of a pigment dispersion in oil is negatively correlated to the dispersion efficacy of the carrier liquid emollient. Therefore, decreased viscosities confirm the homogeneity of the dispersion. To calculate the viscosity difference rate between the pure emollient without added pigment and the pigment dispersion, the following formula will be used: Viscosity difference rate=(viscosity value after pigment dispersion−viscosity value before pigment dispersion)/(viscosity value before pigment dispersion) The lower the viscosity difference rate the better the pigment wetting. Mixtures of 65% emollient with 35% pigment (red iron oxide) were homogenized and analyzed*. [table]

[2] = Pigment dispersion: particle size by Grindometer; type: physicochemical; conditions: 65% emollient with 35% yellow iron oxide, next day, average of 3
Description: Mixtures of 65% emollient with 35% pigment (yellow iron oxide) were homogenized and analyzed*. [table]

Substance: Pentaerythrityl Tetraisostearate
- Viscosity difference rate [1]: 21
- Average particle size [2]: 31 μm
